From paper PMC10703884, “Targeting the COMMD4–H2B protein complex in lung cancer” (British Journal of Cancer, 2023)
“Also recorded” adds a separate entry of the source. No end group written: not given here.

How the values were obtained:
[1] = biological target: T1, recombinant GST-COMMD4 (Homo sapiens, UniProt Q9H0A8); assay: ELISA, binding of H2B peptide and recombinant COMMD4; conditions: H2B peptide 10 μg/ml on NeutrAvidin plate 2 h; recombinant GST-COMMD4 at different concentrations 45 min, room temperature; anti-COMMD4 antibody, chemiluminescent substrate
T1 construct: purchased Abnova H00054939-P01
T1 sequence (Q9H0A8 whole entry): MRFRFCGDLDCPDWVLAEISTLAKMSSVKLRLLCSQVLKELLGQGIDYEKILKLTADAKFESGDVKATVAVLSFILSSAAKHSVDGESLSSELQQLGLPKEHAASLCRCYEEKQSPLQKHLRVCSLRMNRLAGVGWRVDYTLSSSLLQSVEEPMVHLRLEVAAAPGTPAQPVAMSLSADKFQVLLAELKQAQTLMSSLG
Description: ELISA was performed using NeutrAvidin High Binding Capacity Coated 96-Well Plates (Thermo Scientific, 15507) according to the manufacturer’s instructions. Briefly, to the appropriate well, added 100 μl of H2B peptide at 10 μg/ml for 2 h at room temperature. Washed each well three times with NP40 buffer, blocked the plate overnight with 4% BSA in NP40 buffer and the next day added different concentrations of recombinant GST-COMMD4 as shown, for 45 min at room temperature. Washed each well three times with NP40 buffer and added anti-COMMD4 antibody for 45 min at room temperature followed by the enzyme-linked secondary antibody for 30 min at room temperature followed by detection using SuperSignal ELISA Pico Chemiluminescent Substrate (Thermo Scientific, 37070).

[2] = Circular dichroism (CD) of H2B peptides; assay type: physicochemical; conditions: 0.1 mg/ml peptide, 50% TFE, 10 mM phosphate pH 7.2, 50 mM sodium fluoride, 20 °C, average of five scans
Description: For Circular Dichroism (CD), […] and H2BMUT1 peptides were resuspended at a concentration of 0.1 mg/ml in 50% 2,2,2-Trifluoroethanol (Sigma, T63002) with 10 mM Phosphate Buffer pH 7.2 and 50 mM sodium fluoride. The buffer solutions were filtered and degassed before diluting the peptides. The peptides were loaded into a 1 mm path-length quartz cuvette. CD spectra were measured at 20 °C in the far-UV from 250 to 190 nm with a Jasco J-1500 spectropolarimeter at a 0.1 nm interval with a 20 nm/min scan rate. All CD data represent an average of five scans, and the background was corrected with the buffer-matched diluent. The results were converted to the units of molar ellipticity vs. wavelength.

[3] = system: COMMD4-H2B interaction; assay: COMMD4 pull-down competition (COMMD4-H2B interaction); assay type: biochemical; conditions: 1 μg (or amount specified) peptide pre-incubated with recombinant COMMD4 (300 ng) 30 min 4 °C, then 1 μg recombinant H2B 30 min 4 °C, immunoblot
Description: 300 ng of recombinant GST-COMMD4 (Abnova, H00054939-P01) was incubated with 1 μg of recombinant H2B (NEB, M2505S) in NP40 buffer for 30 min at 4 °C. For competition experiments, 1 μg (or the amount specified) of the N-terminal biotin-tagged H2B peptide (GenScript) was pre-incubated with recombinant COMMD4 for 30 min at 4 °C prior to addition of recombinant H2B. Proteins were captured using Streptavidin Dynabeads (ThermoFisher) or Protein A Dynabeads (ThermoFisher), washed three times in NP40 buffer, resuspended in 4X Leammli sample buffer (250 mM Tris pH 6.8, 8% SDS, […], 0.02% bromophenol blue, 8% β-mercaptoethanol) and immunoblotted with the indicated antibodies.
Fig. 2 In vitro binding of the H2B peptide. a In vitro binding of biotin-tagged H2B 10-amino acid peptide (H2BWTpep) and H2BMUT1pep (mutation of key amino acid) with COMMD4. […] FLAG-H2BWT and FLAG-H2BMUT1 were immunoprecipitated from HEK293T cells and the co-eluting proteins were immunoblotted with antibodies against […] and FLAG.

[4] = system: H460, H1299 and CRL5889 NSCLC cells; assay: Clonogenic cell viability after IR, NSCLC cells; assay type: cell-based; conditions: varying IR doses, 7–10 days recovery, three independent experiments, compared to control siRNA or FLAG-H2BMUT1/mock
Description: (§1) H1299, CRL5889 and H460 cells were cultured in Roswell Park Memorial Institute (RPMI) 1640 medium (Life Technologies) containing 10% foetal bovine serum (Thermo Fisher Scientific). Human bronchial epithelial cells (HBEC3-KT) were maintained in keratinocyte serum-free medium supplemented with epidermal growth factor and bovine pituitary extract (Life Technologies). The histology features and origin of all cell lines used have been previously described. Cell lines were authenticated using STR profiling. Cells were grown in a humidified incubator at 37 °C/5% CO2 atmosphere. All cell lines were verified to be free of mycoplasma contamination.
(§2) Irradiations were done at room temperature using a ^137Cs source (Gammacell 40 Exactor [MDS Nordion]; dose rate 1.1 Gy/min). Phalloidin-Atto 488 was purchased from Sigma-Aldrich and Hoechst 33342 was purchased from Thermo Fisher Scientific.
(§3) For siRNA transfections, cells were transfected with negative control or COMMD4 siRNA #2 (CCAUGUCCCUCUCAGCAGA[dT][dT] MISSION® siRNA, Sigma-Aldrich) using RNAiMax (Life Technologies) as previously described and samples were analysed 48 to 72 h post-transfection. […] Cells were mock-transfected, or transfected with FLAG-H2BWT/FLAG-H2BMUT1, or COMMD4-FLAG/A70K with FuGENE® HD (Promega) using the manufacturer’s protocol and analysed 24 h post-transfection. […]

[5] = system: HBEC3-KT cells; assay: Clonogenic cell viability after IR, HBEC3-KT cells; assay type: cell-based, Human; conditions: varying IR doses, 7–10 days recovery, three independent experiments
Description: as §1, §2, §3

[6] = system: NSCLC cells; assay: Immunofluorescence γH2AX and MDC1 foci, NSCLC cells; assay type: cell-based; conditions: 6 Gy IR, 0.5 to 2 h post-IR, 50 cells per condition, three independent experiments
Description: (§4) For siRNA transfections, cells were transfected with negative control or COMMD4 siRNA #2 (CCAUGUCCCUCUCAGCAGA[dT][dT] MISSION® siRNA, Sigma-Aldrich) using RNAiMax (Life Technologies) as previously described and samples were analysed 48 to 72 h post-transfection. The H2B wild-type (FLAG-H2BWT) and mutant (FLAG-H2BMUT1) expression constructs were generated with the 10-amino acid peptide and the corresponding mutant cloned into the expression vector pCDNA3.1/(+)-N-DYK containing an N-terminal FLAG tag and a C-terminal nuclear localisation signal (AAKRVKLDS) (GenScript). A70K FLAG-COMMD4 expression construct was generated by mutating the corresponding COMMD4-FLAG construct to harbour an A70K mutation (GenScript). Cells were mock-transfected, or transfected with FLAG-H2BWT/FLAG-H2BMUT1, or COMMD4-FLAG/A70K with FuGENE® HD (Promega) using the manufacturer’s protocol and analysed 24 h post-transfection.
NSCLC and control cells transfected with siRNA or H2B plasmids were grown in optical glass bottom 96-well plates (Cellvis). Post-treatment, cells were pre-extracted with ice-cold extraction buffer (20 mM HEPES (pH 8), 20 mM NaCl, 5 mM MgCl2, 1 mM ATP, 0.5% NP40), to remove the soluble proteins and processed as previous. Images were captured using a Delta Vision PDV microscope 100x/1.42 Oil objective (Applied Precision, Inc). All immunofluorescence figures were assembled using Adobe Photoshop. High-content microscopy was performed using the InCell Analyzer 6500 Imaging System (GE Healthcare Life Sciences). Images were analysed using the InCarta Image Analysis software (GE Healthcare Life Sciences) where a minimum of 50 nuclei were quantified per experiment.
Fig. 4 Induction of DSBs in NSCLC and control cells. a Immunofluorescence staining of H1299 NSCLC cells transfected with control or COMMD4 siRNA #2 and FLAG-H2BWT or FLAG-H2BMUT1 is shown. […]
independent experiments where 50 cells were quantified per condition. γH2AX is shown in […]
mean ± SD from three independent experiments where 50 cells were quantified per condition.

[7] = system: HBEC3-KT cells; assay: Immunofluorescence γH2AX and MDC1 foci, HBEC3-KT cells; assay type: cell-based, Human; conditions: 6 Gy IR, 50 cells per condition, three independent experiments
Description: as §4
NSCLC and control cells transfected with siRNA or H2B plasmids were grown in optical glass bottom 96-well plates (Cellvis). Post-treatment, cells were pre-extracted with ice-cold extraction buffer (20 mM HEPES (pH 8), 20 mM NaCl, 5 mM MgCl2, 1 mM ATP, 0.5% NP40), to remove the soluble proteins and processed as previous. […] Images were analysed using the InCarta Image Analysis software (GE Healthcare Life Sciences) where a minimum of 50 nuclei were quantified per experiment. […]

[8] = system: H2B; assay: FLAG pull-down, COMMD4-FLAG versus A70K mutant with H2B; assay type: binding; conditions: compared to COMMD4-FLAG
Description: as §4
Co-immunoprecipitations were performed as previously summarised, using ice-cold NP40 buffer. Assays for co-immunoprecipitations were performed at 4 °C from HEK293T, transiently expressing the FLAG-H2B WT or MUT plasmid. Proteins were captured using anti-FLAG M2 Dynabeads (ThermoFisher) and washed three times in NP40 buffer prior to analysis. […]

[9] = system: HBEC3-KT cells; assay: Annexin V-FITC / propidium iodide apoptosis, HBEC3-KT cells; assay type: cell-based, Human; conditions: flow cytometry, three independent experiments
Description: as §4, with “A70K FLAG-COMMD4 expression construct was generated by mutating the corresponding COMMD4-FLAG construct to harbour an A70K mutation (GenScript).” left out
The Annexin V-FITC apoptosis kit (United Bioresearch, ALX-850-020-K101, Enzo Life Sciences, Farmingdale, NY, USA) was used to measure viable and apoptotic cells, as previously described. […] CytExpert 2.0 software was used for data acquisition and analysed using the FlowJo v10 software.
Fig. 5 Induction of mitotic catastrophe and apoptosis in NSCLC cells. a Emerin and phalloidin staining respectively in three NSCLC and control HBEC3-KT cells. […] Asterix (*) denotes *P < 0.05 and ** P < 0.005 from 100 cells counted. […] The live cells were stained with Annexin V-FITC and propidium iodide and analysed by flow cytometer. […]

Question: With SFVNDIFERI [H2BWTpep] as the substance, how does the EC50 [1] read?
Answer: Its EC50 is 70 nM.

Question: With SFVNDKFERI [H2BMUT1pep] as the substance, how does the peak ellipticity maximum ([2]; 1 mm path length) read?
Answer: Its peak ellipticity maximum is 190 nm.

Question: What about the peak minimum ([2]; 1 mm path length) of the same substance?
Answer: Its peak minimum is 202 nm.

Question: What about the “secondary structure / helicity” value [2] of the same substance?
Answer: The value was “possesses little helical structure even in 50% TFE”.

Question: What about the “effect on COMMD4-H2B interaction” value [3] of the same substance?
Answer: Its value is “did not affect the COMMD4-H2B interaction; also recorded: maintains the COMMD4-H2B interaction”.

Question: With “CCAUGUCCCUCUCAGCAGA[dT][dT] [COMMD4 siRNA, reference compound]” as the substance, how does the “sensitivity to ionising radiation (clonogenic viability)” value [4] read?
Answer: Its value is “hypersensitive to IR compared to control siRNA treated cells”.

Question: What about the “sensitivity to ionising radiation (clonogenic viability)” value [5] of the same substance?
Answer: Its value is “neither hypersensitive to IR”.

Question: What about the “γH2AX and MDC1 (DNA repair) foci” value [6] of the same substance?
Answer: Its value is “significantly more γH2AX and MDC1 foci”.

Question: And the “γH2AX and MDC1 (DNA repair) foci” value [7]?
Answer: The value was “exhibited increased DNA repair foci”.

Question: For “A70K COMMD4-FLAG: COMMD4-FLAG construct mutated to harbour an A70K mutation”, which “binding with H2B of COMMD4 mutant” value [8] is on record?
Answer: The value was “showed reduced binding with H2B”.

Question: For “FLAG-H2BMUT1: corresponding mutant cloned into expression vector containing an N-terminal FLAG tag and a C-terminal nuclear localisation signal ({FLAG}-SFVNDKFERIAAKRVKLDS)”, which “γH2AX and MDC1 (DNA repair) foci” value [6] is on record?
Answer: Its value is “not FLAG-H2BMUT1, displayed a similar phenotype to COMMD4 siRNA depleted cells and had significantly more DNA repair foci”.

Question: And the induction of apoptosis [9]?
Answer: Its induction of apoptosis is “no significant induction of apoptosis”.
